Data on 29 molecules can be found in patent publication US6207677A, “Piperidine derivatives having anxiolytic effect” (H. Lundbeck A/S, priority 1991, dated 2001).

Structures are written as SMILES.

The first assay relates to psychosis.
Assay: not given
The following applies: Snyder, Largent 1989; cited from earlier work.
On to `C[C@@H]1CN(CCCn2c3ccccc3c3ccccc32)C[C@H](C)N1` [rimcazole, reference compound], for which the “clinical effect in psychosis” value is “clinically shows effects in the treatment of psychosis”.

The next assay addresses sigma receptors. The experiment in a line: Inhibition of 3H-DTG binding to sigma receptors in rat brain in vitro. As to conditions: 2 nM 3H-DTG, rat brain without cerebellum, 25° C., 20 min.
One may read the IC50 as the concentration at which inhibition is half-maximal. High values mean weaker potency in that assay, low ones greater potency in that assay. In turn, `c1ccc(OCCCN2CCC3(CC2)OCc2ccccc23)cc1` [Compound 2k, 1'-(3-Phenoxy-1-propyl)spiro[isobenzofuran-1(3H),4'-piperidine]] returned an IC50 of 0.19 nM.

With `c1ccc2c(c1)COCC21CCN(CCCCc2c[nH]c3ccccc23)CC1` [Compound 2v, 1'-[4-(3-Indolyl)-1-butyl]-spiro[1H-2-benzopyran-4(3H),4'-piperidine]], the IC50 was 1.8 nM. `CC(C)CCCCN1CCC2(CC1)OCc1ccccc12` [Compound 4b, 1'-(5-Methyl-1-hexyl)-spiro[isobenzofuran-1(3H),4'-piperidine)] showed an IC50 of 0.53 nM. Same read-out and setting: the result for `c1ccc2c(c1)COC21CCN(CCCCc2csc3ccccc23)CC1` [Compound 10a, 1'-(4-(Benzo[b]thiophen-3-yl)-1-butyl)spiro[isobenzofuran-1(3H),4'-piperidine]] reads 0.09 nM; that for `Cc1ccc(S(=O)(=O)n2cc(CCCCN3CCC4(CC3)OCc3ccccc34)c3ccccc32)cc1` [Compound 6b, 1'-(4-(1-p-Toluenesulfonyl-3-indolyl)-1-butyl)spiro[isobenzofuran-1(3H),4'-piperidine]], 0.17 nM; that for `c1ccc2c(c1)NCC2CCCCN1CCC2(CC1)Oc1ccccc1O2` (centres unmarked) [Compound 13a, 1'-[4-(2,3-Dihydro-3-indolyl)-1-butyl]spiro[1,3-benzodioxole-2,4'-piperidine]], 3.7 nM. On the same count and under the same terms, the figure for `Cc1ccc2scc(CCCCN3CCC4(CC3)OCc3ccccc34)c2c1` [Compound 10c, 1'-(4-(5-Methylbenzo[b]thiophen-3-yl)-1-butyl)spiro[isobenzofuran-1(3H),4'-piperidine]] is 0.35 nM. The same measure, in the same setting: the figure for `Fc1ccc(-n2cc(CCCCN3CCC4(CC3)OCc3cccc(F)c34)c3ccccc32)cc1` [Compound 9g, 7-Fluoro-1'-[4-[1-(4-fluorophenyl)-3-indolyl]-1-butyl]spiro[isobenzofuran-1(3H), 4'-piperidine]] is 4.2 nM; for `CC(=O)n1cc(CCCCN2CCC3(CC2)OCc2ccccc23)c2ccccc21` [Compound 7, 1'-(4-(1-Acetyl-3-indolyl)-1-butyl)spiro[isobenzofuran-1 (3H),4'-piperidine]] it is 0.21 nM. Molecule `Fc1ccc(-n2cc(CCCCN3C4CCC3CC3(C4)OCc4ccccc43)c3ccccc32)cc1` (centres unmarked) [Compound 9d] displayed an IC50 of 26 nM. Still for that read-out and setting: the figure for `Cn1cc(CCCCN2CCC3(CC2)OCc2ccccc23)c2ccccc21` [Compound 2bb, 1'-[4-(1-Methyl-3-indolyl)-1-butyl]-spiro[isobenzofuran-1(3H),4'-piperidine]] is 0.3 nM; for `c1ccc(CCCCN2C3CCC2CC2(C3)OCc3ccccc32)cc1` (centres unmarked) [Compound 2t, 8'-(4-Phenyl-1-butyl)spiro[isobenzofuran-1(3H),3'-8-azabicyclo[3,2,1]octane]] it is 5.4 nM. Same read-out and setting: the figure for `c1ccc2c(c1)COCC21CCN(CCCCCc2c[nH]c3ccccc23)CC1` [Compound 2x, 1'-[5-(3-Indolyl)-1-pentyl]-spiro[1H-2-benzopyran-4(3H),4'-piperidine]] is 1.6 nM; for `c1ccc2c(c1)COCC21CCN(CCCCC2CNc3ccccc32)CC1` (centres unmarked) [Compound 13c, 1'-[4-(2,3-Dihydro-3-indolyl)-1-butyl]spiro[1H-2-benzopyran-4(3H) ,4'-piperidine]] it is 4.8 nM. On the same count and under the same terms, the result for `Fc1ccc(-n2cc(CCCCN3CCC(c4cccc(C(F)(F)F)c4)CC3)c3ccccc32)cc1` [Compound 9t, 1-(4-Fluorophenyl)-3-[4-(4-(3-trifluoromethylphenyl)-1-piperidyl)-1-butyl]indole] reads 3.2 nM; that for `Clc1cc2[nH]cc(CCCCN3CCC4(CC3)OCc3ccccc34)c2cc1Cl` [Compound 2z, 1'-[4-(5,6-Dichloro-3-indolyl)-1-butyl]-spiro[isobenzofuranr-1(3H) ,4'-piperidine]], 1.5 nM; that for `O=S1(=O)CC(=CCCCN2CCC3(CC2)OCc2ccccc23)c2ccccc21` [Compound 32, 1'-[4-(2. 3-Dihydro-benzo[b]thiophen-3-yliden)-1-butyl]spiro[isobenzofuran-1(3H),4'-piperidine]-S,S-dioxide], 0.89 nM. The molecule `c1ccc2c(c1)COC21CCN(CCCCC2CNc3ccccc32)CC1` (centres unmarked) [Compound 13b, 1'-[4-(2,3-Dihydro-3-indolyl)-1-butyl]spiro[isobenzofuran-1(3H),4'-piperidine]] came in with an IC50 of 1 nM.

Molecule `FC(F)(F)c1ccc2[nH]nc(CCCCN3CCC4(CC3)OCc3ccccc34)c2c1` [Compound 18a, 1'-[4-(5-Trifluoromethylindazol-3-yl)-1-butyl]-spiro[isobenzofuran-1(3H),4'-piperidine]] registered an IC50 of 0.56 nM.

For `C(=CC1CCc2ccccc21)CCN1CCC2(CC1)OCc1ccccc12` (centres unmarked) [Compound 29, 1'-[4-(1-Indanyl)-but-3-en-1-yl]-spiro[isobenzofuran-1(3H),4'-piperidine]], the IC50 came to 0.12 nM. `c1ccc2c(c1)OC1(CCN(CCCCc3c[nH]c4ccccc34)CC1)O2` [Compound 25b, 1'-[4-(3-Indolyl)-1-butyl]-spiro[1.3-benzodioxole-2,4'-piperidine]] came in with an IC50 of 36 nM. Consider `Fc1ccc(N2CC(CCCCN3CCC4(CC3)OCc3ccccc34)c3ccccc32)cc1` (centres unmarked) [Compound 30, 1'-(4-(2,3-Dihydro-1-(4-fluorophenyl)-3-indolyl)-1-butyl)spiro[isobenzofuran-1(3H),4'-piperidine]], for which the IC50 was determined as 0.07 nM. Same read-out and setting: the result for `c1ccc2c(c1)COC1(CCN(CCCSc3csc4ccccc34)CC1)C2` [Compound 31b, 1'-[3-(Benzo[b]thiophen-3-ylthio)-1-propyl] spiro[3H-2-benzopyran-3,4'-piperidine]] reads 2.6 nM; that for `c1ccc2c(c1)COC21CCN(CCCCc2noc3ccccc23)CC1` [Compound 19a, 1'-(4-(1,2-Benzisoxazol-3-yl)-1-butyl)spiro[isobenzofuran-1(3H) ,4'-piperidine]], 0.08 nM. Same read-out and setting: the result for `OC(CCCN1CCC2(CC1)OCc1ccccc12)c1ccccc1` (centres unmarked) [Compound 26b, 1'-(4-Phenyl-4-hydroxy-1-butyl)-spiro[isobenzofuran-1(3H),4'-piperidine]] reads 1.9 nM; that for `CCCCCCCCCCCCCCCCCCN1CCC2(CC1)OCc1ccccc12` [Compound 4g, 1'-Octadecanyl-spiro[isobenzofuran-1(3H),4'-piperidine]], 46 nM; that for `c1ccc2c(c1)COC21CCN(CCCOC2CCCCC2)CC1` [Compound 2j, 1'-(3-Cyclohexyloxy-1-propyl)spiro[isobenzofuran-1(3H),4'-piperidine]], 0.07 nM. Same read-out and setting: the figure for `c1ccc2c(c1)COC21CCN(CCCCc2cn(-c3ccoc3)c3ccccc23)CC1` [Compound 5e, 1'-[4-[1-(3-Furanyl)-3-indolyl]-1-butyl]spiro[isobenzofuran-1(3H),4'-piperidine]] is 4.7 nM.
